Experimental data: ChEMBL document CHEMBL3431459, “Roche carnitine palmitoyltransferase modulator screening data (supplementary data associated with the publication CHEMBL2216752)”
Values after ≈ are worked out from the molar mass of the structure shown. One block for each molecule: values may come before it.

Columns and labels:
[1] = molecular target: T1, Carnitine O-palmitoyltransferase 1, muscle isoform (Homo sapiens, UniProt Q92523); experiment: SUPPLEMENTARY: Inhibition of Carnitine palmitoyltransferase 1, muscle isoform; parameters: species or system Muscle tissue
T1 sequence (Q92523 whole entry): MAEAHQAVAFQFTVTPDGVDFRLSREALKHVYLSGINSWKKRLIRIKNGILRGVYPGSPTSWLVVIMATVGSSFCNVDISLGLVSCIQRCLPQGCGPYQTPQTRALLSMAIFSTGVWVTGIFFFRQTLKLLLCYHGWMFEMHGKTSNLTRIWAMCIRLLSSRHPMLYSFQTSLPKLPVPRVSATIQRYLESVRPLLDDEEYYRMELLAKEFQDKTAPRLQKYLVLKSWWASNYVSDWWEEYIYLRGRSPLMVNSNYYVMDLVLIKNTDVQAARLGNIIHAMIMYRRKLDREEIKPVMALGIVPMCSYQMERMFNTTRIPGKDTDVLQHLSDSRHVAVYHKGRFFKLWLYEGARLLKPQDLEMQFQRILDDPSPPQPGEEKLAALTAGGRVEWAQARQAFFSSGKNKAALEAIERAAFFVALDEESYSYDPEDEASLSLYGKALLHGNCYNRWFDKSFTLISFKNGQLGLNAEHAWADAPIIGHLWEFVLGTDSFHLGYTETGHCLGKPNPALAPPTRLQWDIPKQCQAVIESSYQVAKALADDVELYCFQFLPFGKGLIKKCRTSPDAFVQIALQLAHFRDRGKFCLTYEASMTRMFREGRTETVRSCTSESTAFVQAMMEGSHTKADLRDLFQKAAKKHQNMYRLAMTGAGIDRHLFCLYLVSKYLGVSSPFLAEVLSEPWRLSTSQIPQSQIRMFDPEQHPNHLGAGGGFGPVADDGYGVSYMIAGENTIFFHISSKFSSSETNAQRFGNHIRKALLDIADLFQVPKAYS

[2] = molecular target: T2, Carnitine O-palmitoyltransferase 2, mitochondrial (Homo sapiens, UniProt P23786); experiment: (§1) SUPPLEMENTARY: Inhibition of Carnitine palmitoyltransferase 2
T2 sequence (P23786 whole entry): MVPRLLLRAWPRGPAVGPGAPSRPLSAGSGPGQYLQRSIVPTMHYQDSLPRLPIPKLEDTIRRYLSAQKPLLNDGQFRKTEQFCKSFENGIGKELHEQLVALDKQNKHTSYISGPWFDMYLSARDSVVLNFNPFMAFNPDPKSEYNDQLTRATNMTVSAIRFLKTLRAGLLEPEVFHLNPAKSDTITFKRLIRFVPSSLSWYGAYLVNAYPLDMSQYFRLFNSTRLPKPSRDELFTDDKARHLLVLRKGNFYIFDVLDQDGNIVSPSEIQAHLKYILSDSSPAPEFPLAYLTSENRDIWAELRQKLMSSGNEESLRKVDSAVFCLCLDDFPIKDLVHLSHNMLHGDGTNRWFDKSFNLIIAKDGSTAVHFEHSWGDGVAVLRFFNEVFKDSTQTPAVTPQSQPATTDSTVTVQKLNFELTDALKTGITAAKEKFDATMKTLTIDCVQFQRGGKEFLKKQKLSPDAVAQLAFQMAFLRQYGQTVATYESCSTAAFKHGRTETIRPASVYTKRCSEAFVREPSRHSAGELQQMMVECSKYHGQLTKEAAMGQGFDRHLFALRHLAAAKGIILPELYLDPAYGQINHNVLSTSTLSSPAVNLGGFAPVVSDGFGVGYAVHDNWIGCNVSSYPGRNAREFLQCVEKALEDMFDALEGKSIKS

[3] = molecular target: T3, Carnitine O-palmitoyltransferase 2, mitochondrial (Rattus norvegicus, UniProt P18886); experiment: as §1
T3 sequence (P18886 whole entry): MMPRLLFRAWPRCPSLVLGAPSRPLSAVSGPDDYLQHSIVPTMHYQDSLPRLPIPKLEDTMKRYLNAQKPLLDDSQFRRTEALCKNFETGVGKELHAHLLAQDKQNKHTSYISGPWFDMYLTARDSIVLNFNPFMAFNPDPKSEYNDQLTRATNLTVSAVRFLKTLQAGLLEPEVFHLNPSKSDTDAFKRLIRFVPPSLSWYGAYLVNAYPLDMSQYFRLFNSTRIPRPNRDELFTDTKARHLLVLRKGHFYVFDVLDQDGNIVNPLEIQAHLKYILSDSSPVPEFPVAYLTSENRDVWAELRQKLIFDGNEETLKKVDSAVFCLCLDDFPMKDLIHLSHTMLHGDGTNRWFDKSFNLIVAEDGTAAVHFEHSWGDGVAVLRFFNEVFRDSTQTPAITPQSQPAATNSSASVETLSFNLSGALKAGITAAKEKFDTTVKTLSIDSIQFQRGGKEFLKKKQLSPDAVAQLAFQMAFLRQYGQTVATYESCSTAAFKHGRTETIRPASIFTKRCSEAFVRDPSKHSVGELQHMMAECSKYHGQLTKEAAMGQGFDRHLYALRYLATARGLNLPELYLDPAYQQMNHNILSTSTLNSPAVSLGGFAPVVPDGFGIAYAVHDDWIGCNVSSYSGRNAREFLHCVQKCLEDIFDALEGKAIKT

[4] = molecular target: T4, Carnitine O-palmitoyltransferase 1, liver isoform (Homo sapiens, UniProt P50416); experiment: (§2) SUPPLEMENTARY: Inhibition of Carnitine palmitoyltransferase 1, liver isoform
T4 sequence (P50416 whole entry): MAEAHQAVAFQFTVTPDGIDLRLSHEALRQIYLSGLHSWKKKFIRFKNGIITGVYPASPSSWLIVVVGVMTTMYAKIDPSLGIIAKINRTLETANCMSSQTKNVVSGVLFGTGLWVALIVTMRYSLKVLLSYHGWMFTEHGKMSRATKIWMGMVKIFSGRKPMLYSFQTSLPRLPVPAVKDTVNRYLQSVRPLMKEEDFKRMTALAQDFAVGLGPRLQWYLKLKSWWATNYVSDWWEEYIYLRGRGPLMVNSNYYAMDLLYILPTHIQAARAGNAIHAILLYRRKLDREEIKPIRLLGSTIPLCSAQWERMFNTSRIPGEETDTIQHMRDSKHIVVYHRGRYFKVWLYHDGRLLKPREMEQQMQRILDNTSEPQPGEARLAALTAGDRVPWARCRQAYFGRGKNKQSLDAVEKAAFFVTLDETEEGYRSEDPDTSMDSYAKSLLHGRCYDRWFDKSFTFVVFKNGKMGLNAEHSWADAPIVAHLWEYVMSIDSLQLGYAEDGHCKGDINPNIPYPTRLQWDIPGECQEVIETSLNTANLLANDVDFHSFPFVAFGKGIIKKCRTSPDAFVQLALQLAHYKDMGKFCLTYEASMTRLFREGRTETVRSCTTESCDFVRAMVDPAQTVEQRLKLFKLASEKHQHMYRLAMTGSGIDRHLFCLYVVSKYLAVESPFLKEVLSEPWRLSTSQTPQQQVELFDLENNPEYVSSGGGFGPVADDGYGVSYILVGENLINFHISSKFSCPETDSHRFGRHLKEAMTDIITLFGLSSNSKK

[5] = molecular target: T5, Carnitine O-palmitoyltransferase 1, liver isoform (Rattus norvegicus, UniProt P32198); experiment: as §2
T5 sequence (P32198 whole entry): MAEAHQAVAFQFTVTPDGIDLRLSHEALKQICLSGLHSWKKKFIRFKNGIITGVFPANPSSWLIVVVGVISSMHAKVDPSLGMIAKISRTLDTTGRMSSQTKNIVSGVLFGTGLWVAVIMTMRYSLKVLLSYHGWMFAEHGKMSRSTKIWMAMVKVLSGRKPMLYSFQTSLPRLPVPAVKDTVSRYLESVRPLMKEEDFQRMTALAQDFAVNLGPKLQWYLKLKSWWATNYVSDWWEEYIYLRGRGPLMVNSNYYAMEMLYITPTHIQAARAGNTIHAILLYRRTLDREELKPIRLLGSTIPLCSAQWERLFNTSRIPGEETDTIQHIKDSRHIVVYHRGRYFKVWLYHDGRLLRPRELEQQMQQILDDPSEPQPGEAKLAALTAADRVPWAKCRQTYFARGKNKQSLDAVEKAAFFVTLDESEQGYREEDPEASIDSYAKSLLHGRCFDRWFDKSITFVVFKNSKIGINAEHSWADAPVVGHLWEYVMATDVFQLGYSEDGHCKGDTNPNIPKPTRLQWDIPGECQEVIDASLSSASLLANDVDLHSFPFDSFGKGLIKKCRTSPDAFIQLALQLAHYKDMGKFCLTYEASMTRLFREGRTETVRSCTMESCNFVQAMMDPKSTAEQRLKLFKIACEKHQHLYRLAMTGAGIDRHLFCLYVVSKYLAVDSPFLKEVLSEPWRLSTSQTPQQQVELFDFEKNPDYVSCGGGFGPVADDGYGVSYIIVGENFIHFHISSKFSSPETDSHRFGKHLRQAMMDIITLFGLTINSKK

[6] = SUPPLEMENTARY: Lyophilisation Solubility Assay (LYSA); format: physicochemical; details: read-out: Kinetic_solubility
[7] = SUPPLEMENTARY: Lipophilicity (log D) Determination by high-throughput shake-flask; format: physicochemical; details: octanol/water
[8] = SUPPLEMENTARY: PAMPA permeability assay; format: physicochemical; details: read-out: Permeability

Structure (SMILES): COc1ccc(Cl)cc1S(=O)(=O)N(C)c1cc(C(=O)Nc2ccn(CC(=O)O)n2)cc2c1OCO2
IC50 [1]: 4260 nM | IC50 [2]: > 100000 nM | IC50 [3]: > 100000 nM | IC50 [4]: 197 nM | IC50 [5]: 527 nM | solubility kinetic [6]: > 566 µg/mL | logD [7]: -1.41 | Papp [8]: 0.13 ×10⁻⁶ cm/s

Structure (SMILES): COc1ccc(Cl)cc1S(=O)(=O)N1CCOc2c(Cl)cc(C(=O)Nc3nc(CC(=O)O)cs3)cc21
IC50 [1]: 1180 nM | IC50 [2]: > 100000 nM | IC50 [3]: > 100000 nM | IC50 [4]: 50.3 nM | IC50 [5]: 54 nM | solubility kinetic [6]: 12 µg/mL (≈ 21.5 µM) | logD [7]: 2.28 | Papp [8]: 2.6 ×10⁻⁶ cm/s

Structure (SMILES): COc1ccc(Cl)cc1S(=O)(=O)N1CCOc2c(Cl)cc(C(=O)Nc3ccc(CC(=O)O)cc3)cc21
IC50 [1]: 1090 nM | IC50 [2]: 78500 nM | IC50 [3]: > 100000 nM | IC50 [4]: 122 nM | IC50 [5]: 100 nM | solubility kinetic [6]: 44 µg/mL (≈ 79.8 µM) | logD [7]: 0.88 | Papp [8]: 3.23 ×10⁻⁶ cm/s

Structure (SMILES): CCN(c1cc(C(=O)Nc2nc(CC(=O)O)cs2)cc2c1OCO2)S(=O)(=O)c1cc(Cl)ccc1OC
IC50 [1]: 1130 nM | IC50 [2]: > 100000 nM | IC50 [3]: > 100000 nM | IC50 [4]: 96.3 nM | IC50 [5]: 85.9 nM | solubility kinetic [6]: 102 µg/mL (≈ 184 µM) | logD [7]: 2.65 | Papp [8]: 3.4 ×10⁻⁶ cm/s

Structure (SMILES): CCCN(c1cc(C(=O)Nc2ccc(CC(=O)O)cc2)cc2c1OCO2)S(=O)(=O)c1cc(Cl)ccc1OC
IC50 [1]: 955 nM | IC50 [2]: > 100000 nM | IC50 [3]: > 100000 nM | IC50 [4]: 191 nM | IC50 [5]: 184 nM | solubility kinetic [6]: 517 µg/mL (≈ 922 µM) | logD [7]: 0.87 | Papp [8]: 3.45 ×10⁻⁶ cm/s

Structure (SMILES): COCCN(c1cc(C(=O)Nc2nc(CC(=O)O)cs2)cc2c1OCO2)S(=O)(=O)c1cc(Cl)ccc1OC
IC50 [1]: 3560 nM | IC50 [2]: 74400 nM | IC50 [3]: > 100000 nM | IC50 [4]: 252 nM | IC50 [5]: 154 nM | solubility kinetic [6]: 238 µg/mL (≈ 408 µM) | logD [7]: 2.57 | Papp [8]: 1.16 ×10⁻⁶ cm/s

Other lines, results leading:

IC50 [1]: 620 nM | IC50 [2]: > 100000 nM | IC50 [3]: > 100000 nM | IC50 [4]: 88.4 nM | IC50 [5]: 98.9 nM | solubility kinetic [6]: 144 µg/mL (≈ 260 µM) | logD [7]: 2.74 | Papp [8]: 3.22 ×10⁻⁶ cm/s
Structure (SMILES): CCN(c1cc(C(=O)Nc2ncc(CC(=O)O)s2)cc2c1OCO2)S(=O)(=O)c1cc(Cl)ccc1OC

IC50 [1]: 622 nM | IC50 [2]: > 100000 nM | IC50 [3]: > 100000 nM | IC50 [4]: 124 nM | IC50 [5]: 131 nM | solubility kinetic [6]: 108 µg/mL (≈ 190 µM) | logD [7]: 2.72 | Papp [8]: 3.58 ×10⁻⁶ cm/s
Structure (SMILES): CCCN(c1cc(C(=O)Nc2nc(CC(=O)O)cs2)cc2c1OCO2)S(=O)(=O)c1cc(Cl)ccc1OC

IC50 [1]: 703 nM | IC50 [2]: > 100000 nM | IC50 [3]: > 100000 nM | IC50 [4]: 181 nM | IC50 [5]: 61.9 nM | solubility kinetic [6]: 108 µg/mL (≈ 190 µM) | logD [7]: 2.74 | Papp [8]: 3.56 ×10⁻⁶ cm/s
Structure (SMILES): CCCN(c1cc(C(=O)Nc2ncc(CC(=O)O)s2)cc2c1OCO2)S(=O)(=O)c1cc(Cl)ccc1OC

IC50 [1]: 820 nM | IC50 [2]: 38300 nM | IC50 [3]: > 100000 nM | IC50 [4]: 163 nM | IC50 [5]: 374 nM | solubility kinetic [6]: 109 µg/mL (≈ 192 µM) | logD [7]: 2.84 | Papp [8]: 3.53 ×10⁻⁶ cm/s
Structure (SMILES): COc1ccc(Cl)cc1S(=O)(=O)N(c1cc(C(=O)Nc2ncc(CC(=O)O)s2)cc2c1OCO2)C(C)C
